Test systems include PC-3 prostate; MDA-MB-435; MDA-MB-231 breast; DU-145 prostate; HS 578T breast.
Common to all, as to assay: NCI anticancer screen, dose series, 48 h

Values joined by “and” are separate entries in the source; they are usually repeats but may differ in a detail not shown here. Equal entries are not always repeated.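 Results reflect a 48-hour exposure of cells in 96-well plates to compound at five concentrations. GI50 = concentration required for 50% inhibition of growth. TGI: concentration producing complete growth inhibition.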 A value given as a limit tells only on which side of the number the result lay.

Consider `COc1ccc(-c2cc(-c3ccc(Nc4nc(Nc5ccc(Cl)cc5)nc(Nc5ccc(Cl)cc5)n4)cc3)no2)cc1`, for which the GI50 is 3.65 µM in the assay on PC-3 prostate; 10.3 µM in the assay with MDA-MB-435; 16.4 µM in the assay on MDA-MB-231 breast; 11.4 µM with DU-145 prostate; 20.3 µM in the assay with HS 578T breast. Besides, the TGI in the assay on PC-3 prostate is 25.5 µM; with MDA-MB-435, 37 µM; with MDA-MB-231 breast, over 100 µM; with DU-145 prostate, 36.3 µM; in the assay on HS 578T breast it was over 100 µM.
On to `CC(C)C1C(=O)N2CCCC2C2(O)OC(NC(=O)C3C=C4c5cccc6[nH]cc(c56)CC4N(C)C3)(C(C)C)C(=O)N12` (stereo not given), for which the TGI is 87.3 µM in the assay with PC-3 prostate; over 100 µM with MDA-MB-435; 34.3 µM in the assay on MDA-MB-231 breast; over 100 µM in the assay with DU-145 prostate; over 100 µM in the assay with HS 578T breast.
Regarding `O=C1C2CC3C(CC2C(=O)[N]1[Sn]([c]1ccccc1)([c]1ccccc1)[c]1ccccc1)C1(Cl)C(Cl)=C(Cl)C3(Cl)C1(Cl)Cl` (stereo not given), the GI50 is 0.0958 µM in the assay on PC-3 prostate; 0.0872 µM in the assay with MDA-MB-435; 0.127 µM in the assay on MDA-MB-231 breast; 0.0701 µM in the assay on DU-145 prostate; 0.204 µM in the assay with HS 578T breast. The TGI in the assay on PC-3 prostate came out at 0.315 µM; with MDA-MB-435 it was 0.257 µM; in the assay on MDA-MB-231 breast, 0.37 µM; in the assay on DU-145 prostate, 0.2 µM; in the assay with HS 578T breast, 1.11 µM.
Consider `C[C@H]1CCC/C=C/[C@@H]2C[C@H](O)C[C@H]2[C@H](O)[C@H](S(=O)c2ccc(O)cc2)CC(=O)O1` (stereo not given in full), for which the GI50 in the assay on PC-3 prostate is 0.0343 µM; with MDA-MB-435 it was 0.0417 µM; with MDA-MB-231 breast, 0.0245 µM; in the assay with HS 578T breast, 0.0726 µM. Also, the values for the TGI in the assay on MDA-MB-231 breast and in the assay on HS 578T breast were 0.0533 µM and over 100 µM, respectively.
For `Cc1cc(NC(=O)c2ccc(NS(=O)(=O)CCO)cc2N2CCC3(CC2)CC3)nc(N2CCC(F)(F)CC2)n1`, the GI50 in the assay on PC-3 prostate was 7.46 µM; in the assay on MDA-MB-435 it was 0.903 µM; in the assay with MDA-MB-231 breast it was 0.188 µM; in the assay on DU-145 prostate, 0.0531 µM; with HS 578T breast, 0.746 µM. The TGI in the assay on PC-3 prostate is 23.6 µM; with MDA-MB-435 it was 18.5 µM; with MDA-MB-231 breast, 17.6 µM; in the assay on DU-145 prostate it was 15.8 µM; in the assay on HS 578T breast it was 21.9 µM.
As to `COc1cc(N2CCC(N3CCN(C)CC3)CC2)ccc1Nc1ncc(Cl)c(Nc2ccccc2P(C)(C)=O)n1`, the GI50 in the assay on PC-3 prostate is 4.19 µM; in the assay on MDA-MB-435, 2.94 µM; with MDA-MB-231 breast, 0.625 µM; with DU-145 prostate it was 0.933 µM; in the assay on HS 578T breast, 2.46 µM. The TGI with PC-3 prostate was over 100 µM; in the assay with MDA-MB-435 it was over 100 µM; in the assay on MDA-MB-231 breast, 31.7 µM; with DU-145 prostate, 20.5 µM; in the assay on HS 578T breast, 24.1 µM.
Take `O=S(=O)(NCCNc1cc(-c2cn(-c3ccccc3)nc2-c2cccc(O)c2)ccn1)c1ccc(C(F)(F)F)cc1`: the GI50 with PC-3 prostate is 2.47 µM; in the assay with MDA-MB-435, 2.4 µM; in the assay with MDA-MB-231 breast, 2.12 µM; in the assay with DU-145 prostate, 4.44 µM; with HS 578T breast, 2.31 µM. The TGI in the assay on PC-3 prostate came out at 10.9 µM; in the assay on MDA-MB-435 it was 7.63 µM; with MDA-MB-231 breast, 4.72 µM; with DU-145 prostate, 15.9 µM; in the assay on HS 578T breast, 19.4 µM.
Regarding `CCCCCCCCCCCCCCCCC1=CC(=O)C=C(OC)C1=O`, the TGI in the assay with PC-3 prostate, with MDA-MB-435, in the assay on MDA-MB-231 breast, in the assay with DU-145 prostate and in the assay with HS 578T breast was over 100 µM throughout.
Turning to `COc1ccc(OC)c(/C=C/c2nnc(Nc3ccc(Cl)cc3)o2)c1`, the GI50 is 13.3 µM in the assay with PC-3 prostate; 37 µM with MDA-MB-435; 5.23 µM with MDA-MB-231 breast; 11.4 µM in the assay with DU-145 prostate; 2.71 µM in the assay with HS 578T breast. The TGI is 76 µM in the assay on PC-3 prostate; over 100 µM in the assay on MDA-MB-435; 53.1 µM in the assay on MDA-MB-231 breast; 36.9 µM in the assay with DU-145 prostate; 8.01 µM in the assay with HS 578T breast.
Turning to `CCN(Cc1ccc(F)cc1)c1ccc(CO)c(Cl)c1`, the GI50 is 14.3 µM in the assay with PC-3 prostate; 19.9 µM in the assay with MDA-MB-435; 15.6 µM in the assay on MDA-MB-231 breast; 15.2 µM in the assay on DU-145 prostate; 17.8 µM in the assay with HS 578T breast. Besides, the TGI with PC-3 prostate was 49.4 µM; with MDA-MB-435, 73.2 µM; in the assay on MDA-MB-231 breast, 51.5 µM; with DU-145 prostate, over 49.2 µM; with HS 578T breast, over 66.2 µM.
With `O=C1C=C(Nc2ccccc2)c2ncccc2C1=O`, the GI50 was 0.439 µM with PC-3 prostate; 0.178 µM in the assay on MDA-MB-435; 0.485 µM in the assay with MDA-MB-231 breast; 0.341 µM in the assay with DU-145 prostate; 2.33 µM with HS 578T breast. The TGI in the assay with PC-3 prostate turned out to be 2.29 µM; with MDA-MB-435 it was 0.323 µM; with MDA-MB-231 breast, 3.4 µM; in the assay on DU-145 prostate it was 1.12 µM; in the assay with HS 578T breast, 6.58 µM.
Regarding `O=S(=O)(/C=C/C=C/S(=O)(=O)c1ccccc1)c1ccccc1`, the GI50 in the assay on PC-3 prostate was 1.9 µM; with MDA-MB-435, 1.04 µM; with MDA-MB-231 breast, 1.87 µM; in the assay on HS 578T breast it was 2.93 µM. Further, the TGI with PC-3 prostate was 7.38 µM and 3.98 µM; with MDA-MB-435, 4.21 µM and 4.19 µM; in the assay on MDA-MB-231 breast it was 3.37 µM and 3.73 µM; in the assay with DU-145 prostate, 27.7 µM; in the assay with HS 578T breast it was 8.24 µM and 8.07 µM.
Regarding `CCc1ccc(C2=C/C(=C/c3ccc(Cl)cc3)C(=O)N2CCc2ccc(S(N)(=O)=O)cc2)cc1`, the GI50 in the assay with PC-3 prostate is 1.9 µM; with MDA-MB-435 it was 2.15 µM; in the assay on MDA-MB-231 breast, 2.36 µM; in the assay on DU-145 prostate it was 3.77 µM; with HS 578T breast, 3.05 µM. Further, the TGI in the assay on PC-3 prostate is 5.36 µM; in the assay on MDA-MB-435, 4.81 µM; in the assay with MDA-MB-231 breast, 5.92 µM; in the assay on DU-145 prostate it was 15.4 µM; in the assay with HS 578T breast it was 10.9 µM.
On to `CCN1C(=O)N(CC)C2C1NN=c1s/c(=C3\C(=O)N(CCC(C)C)c4ccccc43)c(=O)n12` (stereo not given), for which the GI50 with PC-3 prostate was 2.91 µM; with MDA-MB-435, 0.308 µM; in the assay with MDA-MB-231 breast, 1.66 µM; with DU-145 prostate, 2.91 µM; in the assay with HS 578T breast, 1.08 µM. Further, the TGI with PC-3 prostate was over 100 µM; in the assay on MDA-MB-435 it was 1.14 µM; in the assay with MDA-MB-231 breast it was 3.42 µM; in the assay on DU-145 prostate it was 9.33 µM; with HS 578T breast, 4.87 µM.

The record behind these values is PubChem BioAssay (NCI).
